Data as given in ChEMBL document CHEMBL1782021, “Synthesis of 2-aziridinyl phosphonates by modified Gabriel-Cromwell reaction and their antibacterial activities” (2011).

How the values were obtained:
Type in all cases: functional
Bacillus subtilis = test: Antibacterial activity against Bacillus subtilis assessed as diameter of zone of inhibition at 10 ug/disk after 24 hrs by disc diffusion assay; conditions: read-out: DIZ
Escherichia coli = test: Antibacterial activity against Escherichia coli DH5[alpha] at 10 ug/disk after 24 hrs by disc diffusion assay; conditions: read-out: DIZ
Brevundimonas = test: Antibacterial activity against Brevundimonas sp. isolate Fs30 at 10 ug/disk after 24 hrs by disc diffusion assay; conditions: isolate Fs30, 24 h, read-out: DIZ
Kocuria = test: Antibacterial activity against Kocuria sp. isolate Fs24 at 10 ug/disk after 24 hrs by disc diffusion assay; conditions: isolate Fs24, 24 h, read-out: DIZ
Gordonia sp. = test: Antibacterial activity against Gordonia sp. isolate Fs48 at 10 ug/disk after 24 hrs by disc diffusion assay; conditions: Gordonia sp. (in: high G+C Gram-positive bacteria), isolate Fs48, 24 h; read-out: DIZ

Row | SMILES | zone of inhibition at 10 µg/disc (Bacillus subtilis) | zone of inhibition at 10 µg/disc (Escherichia coli) | zone of inhibition at 10 µg/disc (Brevundimonas) | zone of inhibition at 10 µg/disc (Kocuria) | zone of inhibition at 10 µg/disc (Gordonia sp.)
1 | CC1(C)S[C@@H]2[C@H](NC(=O)[C@H](N)c3ccccc3)C(=O)N2[C@H]1C(=O)O [AMPICILLIN] | 17.3 mm | 16.7 mm | 10.7 mm | 47.7 mm | –
2 | CN[C@@H]1[C@H](O[C@H]2[C@H](O[C@H]3[C@H](O)[C@@H](O)[C@H](N=C(N)N)[C@@H](O)[C@@H]3N=C(N)N)O[C@@H](C)[C@]2(O)C=O)O[C@@H](CO)[C@H](O)[C@H]1O [STREPTOMYCIN] | 14 mm | 19.7 mm | 29.3 mm | 26 mm | 29 mm
